For data set [1], the target named is T1, carboxypeptidase cathepsin A (Homo sapiens, UniProt P10619).
T1 sequence (P10619 29-480): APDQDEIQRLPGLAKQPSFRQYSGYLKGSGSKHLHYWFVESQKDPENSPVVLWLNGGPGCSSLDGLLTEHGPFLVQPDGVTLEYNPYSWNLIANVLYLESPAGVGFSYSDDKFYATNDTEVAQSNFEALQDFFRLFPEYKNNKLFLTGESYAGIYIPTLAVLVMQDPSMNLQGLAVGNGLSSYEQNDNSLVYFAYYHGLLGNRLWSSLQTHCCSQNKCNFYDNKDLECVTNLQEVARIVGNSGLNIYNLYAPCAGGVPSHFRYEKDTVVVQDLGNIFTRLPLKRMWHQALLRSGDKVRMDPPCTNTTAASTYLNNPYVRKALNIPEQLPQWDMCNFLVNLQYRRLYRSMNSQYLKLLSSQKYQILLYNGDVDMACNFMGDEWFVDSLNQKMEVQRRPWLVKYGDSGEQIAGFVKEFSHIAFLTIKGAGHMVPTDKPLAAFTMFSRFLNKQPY
The data set can be described thus: In vitro cathepsin A mediated degradation monitored by 31P NMR and mass spectroscopy. The note with it: after 72 h. Type of data set: in vitro ADME. On the procedure: In order to get an insight into the metabolism of ProPAgens 6a–d, compound 6d was incubated with the carboxypeptidase cathepsin A in vitro and the reaction was monitored with ^31P NMR. […] This may explain literature reports pursuing the phosphonates of HMBP where the −O-P- bond was replaced by a −CH2-P- one and lack of reports on the native HMBP phosphate prodrugs.[19]

The next data set concerns PBMC. The experiment in a line: Specific cell death in PBMC cultures (ED50, viability dye). Type of data set: cell-based, human. Conditions: supplementary CSV. On the procedure: Figure 2 Activation of human Vγ9/Vδ2^+ T cells by HMBP ProPAgens. (a) Human peripheral blood mononuclear cells (PBMC) were incubated with media or indicated concentrations of HMB-PP or zoledronate for 18 h. TCR Vγ9/Vδ2^+ T cells were then assessed for the upregulation of cell surface markers, CD69 and CD25. Data representative of n = 5. (b) As in (a), with PBMC incubated with indicated concentrations of HMBP ProPAgens. Data representative of n = 4. (c) As in (a) and (b), with data showing titrations of each of HMB-PP, zoledronate, and HMBP ProPAgens, alongside a medium control (M). Data from n = 4–5 donors. (d) EC50, ED50, and selectivity index (SI) values for each HMBP ProPAgens. Specific cell death, for ED50 values, was calculated after adjusting for nonspecific cell death in medium controls. (e) CD69 and CD25 activation in CD3^+ CD8^+ αβ T-cells for each compound.
I. T-cell isolation, culture and activation
PBMCs were isolated from heparinised venous blood from consented healthy donors (approved by the NRES Committee West Midlands ethical board; REC reference 14/WM/1254). Blood was layered over lymphoprep© (Stem Cell Technologies) and PBMC isolated according to manufacturers instructions. The cell culture medium used throughout was RPMI-1640 media supplemented with 2 mM L-glutamine, 25 mM HEPES, 1% sodium pyruvate, 50 μg/ml penicillin/streptomycin (Invitrogen) and 10% fetal calf serum (Sigma). For activation assays, 5 x 10^5 PBMC were cultured for 20 h in the presence of medium alone or the indicated concentrations of HMB-PP (Sigma), Zoledronate (Sigma), 5a, 5b, 5c and 5d (as described above). Cultured PBMC were labelled with Zombie© aqua viability dye (Biolegend) and cells were stained for surface antigens by antibodies directed against CD3 (UCHT1; […]
(§1) (IMMU360; 1:400); Beckman Coulter, and TCR Vδ2 (123R3; 1:200); Miltenyi. […] All cells were then labelled with Zombie© aqua viability dye and CFSE+ Zombie© aqua+ cells measured. All data were acquired on an LSR II (Beckton Dickinson) and data analysed with FlowJo V10.1 (TreeStar). Tabulated data were analysed in Graphpad PRISM 7

The next data set has as its system Vγ9/Vδ2 T-cells. The data set can be described thus: Activation of Vγ9/Vδ2 T-cells in PBMC (upregulation of CD69 and CD25). The data set is classed as cell-based. Conditions: human PBMC from healthy donors, 18 h, n = 4-5 donors, Figure 2d and text.
Data set [2] concerns T24 urinary bladder carcinoma cell line. The data set can be described thus: Specific lysis of pulsed T24 bladder carcinoma cells by expanded Vγ9/Vδ2 T cells. The data set is classed as cell-based, human. The note with it: T24 pulsed 4 h with 10 nM ProPAgens or 10 μM zoledronate, cocultured 18 h with expanded Vγ9/Vδ2 T cells. On the procedure:
Next, we tested the potential for ProPAgens to sensitize the urinary bladder carcinoma cell line T24 for targeted killing by in vitro expanded Vγ9/Vδ2 T cells. Without sensitization, medium pulsed T24 cells were poorly targeted by increasing ratios of Vγ9/Vδ2 T cells, but upon pulsing for 4 h with zoledronate or ProPAgens 5a–d, T24 cells were specifically lysed (Figure 3a). […] In contrast, a 1000-fold lower concentration of each ProPAgen mediated a 2- to 4-fold increase in specific lysis of T24 over the same period (Figure 3b).
Figure 3 HMBP ProPAgens mediate the specific lysis of bladder cancer cells by Vγ9/Vδ2 T-cells. […] Specific killing of target cells was measured by amine-reactive dead cell marker staining. […] (b) As in (a) showing the mean ± SD specific killing of T24 cells at 1:10 target/effector ratio for each indicated treatment, n = 2: (∗) P < 0.05; (∗∗) P < 0.01; determined by one-way ANOVA. […]
as §1

With `C/C(=C\COP(=O)(N[C@@H](C)C(=O)OC(C)(C)C)Oc1ccccc1)CO` (stereo partly drawn) [6d, tert-Butyl ((((E)-4-Hydroxy-3-methylbut-2-en-1-yl)oxy)(phenoxy)phosphoryl)-L-alaninate], the “degradation product (major metabolite) after incubation with cathepsin A” value in data set [1] was “phosphate group masked with the aryl motif and the amino acid ester moiety”.

Consider `C/C(=C\COP(=O)(O)OP(=O)(O)O)CO` [HMBPP, (E)-4-hydroxy-3-methyl-but-2-enyl pyrophosphate], for which the “ED50” value in the data set on PBMC is more than 100 µM. `C/C(=C\COP(=O)(N[C@@H](C)C(=O)OC(C)(C)C)Oc1ccccc1)CO[Si](C)(C)C(C)(C)C` (stereo partly drawn) [5d, tert-Butyl ((((E)-4-((tert-Butyldimethylsilyl)oxy)-3-methylbut-2-en-1-yl)oxy)(phenoxy)phosphoryl)-L-alaninate]: in the data set on Vγ9/Vδ2 T-cells, the “EC50, activation of Vγ9/Vδ2 T-cells” value is “low nanomolar activation”. For the same compound, the “ED50” value with PBMC was more than 100 µM. As to `O.O=P(O)(O)C(O)(Cn1ccnc1)P(=O)(O)O` [Zoledronate], in the data set with PBMC, the “ED50” value is more than 100 µM. Also, the “specific lysis/killing of T24 cells by Vγ9/Vδ2 T cells (in words)” value in data set [2] is on record as “only a marginal increase”. Turning to `COC(=O)[C@H](C)NP(=O)(OC/C=C(\C)CO[Si](C)(C)C(C)(C)C)Oc1ccccc1` (stereo partly drawn) [5a, Methyl ((((E)-4-((tert-Butyldimethylsilyl)oxy)-3-methylbut-2-en-1-yl)oxy)(phenoxy)phosphoryl)-L-alaninate], in the data set with Vγ9/Vδ2 T-cells, the “EC50, activation of Vγ9/Vδ2 T-cells” value is given as “low nanomolar activation”. The same measure, in the same setting: then `C/C(=C\COP(=O)(N[C@@H](C)C(=O)OC(C)C)Oc1ccccc1)CO[Si](C)(C)C(C)(C)C` (stereo partly drawn) [5c, Isopropyl ((((E)-4-((tert-Butyldimethylsilyl)oxy)-3-methylbut-2-en-1-yl)oxy)(phenoxy)phosphoryl)-L-alaninate], with “low nanomolar activation”.

The values above are taken from PMC6493972, “Synthesis and Biological Evaluation of (E)-4-Hydroxy-3-methylbut-2-enyl Phosphate (HMBP) Aryloxy Triester Phosphoramidate Prodrugs as Activators of Vγ9/Vδ2 T-Cell Immune Responses” (Journal of Medicinal Chemistry, 2018).
